Here are results for 11 molecules from patent US20240400521A1, “QUINAZOLINE COMPOUND, COMPOSITION, AND APPLICATION THEREOF” (BEIJING SCITECH-MQ PHARMACEUTICALS LIMITED, priority 2021, published 2024).

A value given as a limit tells only on which side of the number the result lay.

As usually defined, the IC50 is the concentration at which inhibition is half-maximal. Low readings indicate higher potency, high ones lower potency.

Assay [1] addresses T1, EGFR^WT kinase (Homo sapiens, UniProt P00533).
T1 construct: purchased Carna Biosciences 08-115
Briefly: EGFR^WT kinase assay (ULight peptide / Eu-PT66 antibody detection). In kind it is biochemical. From the text:
(§1) Reagents and consumables: ULight™-labeled Ploy GT Peptide (Perkin Elmer, Cat. No. TRF-0100-M); ULight™-labeled JAK-1 (Try1023) Peptide (Perkin Elmer, Cat. No. TRF-0121-M); Eu-W1024-labeled Anti-Phosphotyrosine Antibody (PT66) (Perkin Elmer, Cat. No. AD0068); 10×Detection Buffer (Perkin Elmer, Cat. No. CR97-100); HER2 Kinase (Carna Biosciences, Cat. No. 08-016); EGFR kinase (Carna Biosciences, Cat. No. 08-115); HEPES (GIBCO, Cat. No. 15630-080); EGTA (Sigma, Cat. No. 03777-10G); EDTA (Sigma, Cat. No. EDS-100G); MgCl2 (Sigma, Cat. No. 63069-100ML); DTT (Sigma, Cat. No. 43816-10ML); Tween-20 (Sigma, Cat. No. P7949-100ML); DMSO (Life Science, Cat. No. 0231-500ML); 384-well plates (Perkin Elmer, Cat. No. 607290); multifunctional plate reader (Perkin Elmer, Cat. No. Envision)
(§2) Preparation of compound solution: The assay compound was dissolved in DMSO to form a 10 mM stock solution. Prior to use, the compound was diluted to 0.25 mM in DMSO (100 times the final concentration of the diluent) and then subjected to a 3-fold concentration gradient dilution to obtain a total of 11 concentrations. The solution was diluted with buffer to a diluent with 4× the final concentration when the drug was added.
(§3) EGFR^WT kinase assay: buffer was prepared, and 3.48 nM 4× EGFR kinase solution, 600 μM 4× ATP solution, and 400 nM 4×ULight™-labeled JAK-1 (Try1023) Peptide substrate solution was prepared using the buffer. After the preparation was completed, the enzyme was mixed with different concentrations of compounds pre-prepared by dilution, and the mixture was left to stand at room temperature for 5 min. Each concentration was performed in duplicate. The corresponding substrate and ATP were added and the mixture was reacted at room temperature for 120 minutes (with negative and positive controls). After completion of the reaction, PT66 detection antibody was added. The mixture was incubated at room temperature for 60 minutes, and then detected by Envision.
(§4) Data Calculation: the reading of well and inhibition rate were calculated using Excel, wherein reading of well=10000*(well EU665 value)/(well EU615 value), and inhibition rate=[(reading of positive control well−reading of assay well)/(reading of positive control well−reading of negative control well)]*100%. Compound concentrations and corresponding inhibition rates were input into GraphPad Prism for processing to calculate IC50 values.

Assay [2] has as its target T2, HER2 kinase (Homo sapiens, UniProt P04626).
T2 construct: purchased Carna Biosciences 08-016
Briefly: HER2 kinase assay (ULight peptide / Eu-PT66 antibody detection). Type of assay: biochemical.
From the text: as §1, §2
as §3, with “HER2 kinase” for “EGFR^WT kinase”, “and 40” for “and 3.48”, “4× HER2” for “4× EGFR”, “solution, 40” for “solution, 600”, “4×ULight™-labeled Ploy GT” for “4×ULight™-labeled JAK-1 (Try1023)”, “solution were” for “solution was”
as §4

The subject of assay [3] is HCC-827 cells. Briefly: Inhibition of cell proliferation, CTG method, HCC-827. Type of assay: cell-based. As to conditions: Homo sapiens, HCC827, 72 hours. The source says: (§5) The present application examined the in vitro anti-proliferative activity of the compounds of the present disclosure against in vitro cultured HCC-827, Ba/F3-EGFR-VIII and Ba/F3 EGFR D770_N771insSVD cell lines by CTG method.
(§6) Reagents and consumables: RPMI1640 (ThermoFisher, Cat. No. C11875500BT); DMEM (ThermoFisher, C11995500BT); fetal bovine serum (Hyclone, Cat. No. SV30087.03); 0.25% trypsin-EDTA (ThermoFisher, Cat. No. 25200072); penicillin-streptomycin (Hyclone, Cat. No. SV30010); DMSO (Life Science, Cat. No. 0231-500ML); CTG assay kit (Promega, Cat. No. G9243); 96-well plate (Corning, Cat. No. 3599); multifunctional plate reader (Perkin Elmer, Cat. No. Envision)
(§7) Cell lines: HCC-827 (from ATCC), Ba/F3-EGFR-VIII and Ba/F3 EGFR D770_N771insSVD (all from KYinno Biotechnology (Beijing) Co., Ltd.); all of the above cells were cultured with RPMI1640 medium containing 10% fetal bovine serum, 100 U/mL penicillin, and 100 μg/mL streptomycin in the culture process, and HCC-827 was cultured with DMEM medium containing 10% fetal bovine serum, 100 U/mL penicillin, and 100 μg/mL streptomycin.
(§8) • 1. The assay compound was dissolved with DMSO to form a stock solution and a gradient dilution was performed, followed by dilution with the corresponding medium to obtain a solution with 5-fold working concentration. • 2. Cells in logarithmic growth phase were adjusted to specific cell densities by dilution with culture medium, and 80 μL of cell suspension was added to a 96-well plate, such that plating densities of cells of HCC-827, Ba/F3-EGFR-VIII and Ba/F3 EGFR D770_N771insSVD were all 3000 cells/well. The cells of Ba/F3-EGFR-VIII and Ba/F3 EGFR D770_N771insSVD were used directly in the next step (treatment with compound), whereas the HCC-827 needed to be cultured overnight in a 37° C., 5% carbon dioxide gas incubator to adhere to the wall, and then treated with compounds. • 3. 20 μL of compound solution was added to each well of the 96-well plate that had been inoculated with cells. The highest concentration of the assayed compound was 10 μM, 4-fold serial dilution, a total of 9 concentrations, and duplicate wells. A control group without compound was also set up. • 4. The cells were cultured for another 72 hours, and then cell viability was detected by CTG assay kit. Signal values were read with a multifunctional plate reader (Perkin Elmer). GraphPad Prism software was used to create a dose-response curve and IC50 was calculated.

Assay [4] deals with Ba/F3 EGFR D770_N771insSVD cells (Homo sapiens, UniProt P00533, DUP768-770, cells depend on it). Put plainly: Inhibition of cell proliferation, CTG method, Ba/F3 EGFR D770_N771insSVD. In kind it is cell-based. The conditions noted are these: 72 hours, read-out: Ba/F3 EGFR D770_N771insSVD IC50.
From the text: as §5, §6, §7, §8

Assay [5] deals with Ba/F3-EGFR-VIII cells (Homo sapiens, UniProt P00533, DELINS30-297G, cells depend on it). Put plainly: Inhibition of cell proliferation, CTG method, Ba/F3-EGFR-VIII. Type of assay: cell-based. The conditions noted are these: 72 hours, read-out: Ba/F3 EGFRvIII IC50.
From the text: as §5, §6, §7, §8

Chain of Ba/F3-EGFR-VIII cells (P00533 with tags, fused parts or gaps DELINS30-297G): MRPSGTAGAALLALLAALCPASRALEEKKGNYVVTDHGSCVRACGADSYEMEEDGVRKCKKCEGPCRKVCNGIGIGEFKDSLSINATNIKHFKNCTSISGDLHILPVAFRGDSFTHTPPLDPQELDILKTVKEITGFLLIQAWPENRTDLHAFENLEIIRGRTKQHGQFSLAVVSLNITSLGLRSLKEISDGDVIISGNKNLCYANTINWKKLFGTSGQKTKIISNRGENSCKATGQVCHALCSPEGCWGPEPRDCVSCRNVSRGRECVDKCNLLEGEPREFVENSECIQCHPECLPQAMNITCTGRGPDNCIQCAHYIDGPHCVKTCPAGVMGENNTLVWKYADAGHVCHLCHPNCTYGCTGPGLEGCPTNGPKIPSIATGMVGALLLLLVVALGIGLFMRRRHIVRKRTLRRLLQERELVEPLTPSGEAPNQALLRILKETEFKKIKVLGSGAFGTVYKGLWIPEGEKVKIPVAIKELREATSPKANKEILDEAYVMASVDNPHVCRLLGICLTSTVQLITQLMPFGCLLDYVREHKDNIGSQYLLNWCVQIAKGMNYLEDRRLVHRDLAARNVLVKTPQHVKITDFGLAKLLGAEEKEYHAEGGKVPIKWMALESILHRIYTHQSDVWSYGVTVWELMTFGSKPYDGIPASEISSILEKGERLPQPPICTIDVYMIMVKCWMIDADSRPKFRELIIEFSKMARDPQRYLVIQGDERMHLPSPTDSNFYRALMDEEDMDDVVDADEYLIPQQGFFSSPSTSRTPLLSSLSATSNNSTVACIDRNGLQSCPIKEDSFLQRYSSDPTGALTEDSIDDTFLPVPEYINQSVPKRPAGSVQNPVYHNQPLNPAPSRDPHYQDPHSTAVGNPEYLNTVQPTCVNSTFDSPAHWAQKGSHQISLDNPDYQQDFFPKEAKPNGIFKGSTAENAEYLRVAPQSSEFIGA
Chain of Ba/F3 EGFR D770_N771insSVD cells (P00533 with tags, fused parts or gaps DUP768-770): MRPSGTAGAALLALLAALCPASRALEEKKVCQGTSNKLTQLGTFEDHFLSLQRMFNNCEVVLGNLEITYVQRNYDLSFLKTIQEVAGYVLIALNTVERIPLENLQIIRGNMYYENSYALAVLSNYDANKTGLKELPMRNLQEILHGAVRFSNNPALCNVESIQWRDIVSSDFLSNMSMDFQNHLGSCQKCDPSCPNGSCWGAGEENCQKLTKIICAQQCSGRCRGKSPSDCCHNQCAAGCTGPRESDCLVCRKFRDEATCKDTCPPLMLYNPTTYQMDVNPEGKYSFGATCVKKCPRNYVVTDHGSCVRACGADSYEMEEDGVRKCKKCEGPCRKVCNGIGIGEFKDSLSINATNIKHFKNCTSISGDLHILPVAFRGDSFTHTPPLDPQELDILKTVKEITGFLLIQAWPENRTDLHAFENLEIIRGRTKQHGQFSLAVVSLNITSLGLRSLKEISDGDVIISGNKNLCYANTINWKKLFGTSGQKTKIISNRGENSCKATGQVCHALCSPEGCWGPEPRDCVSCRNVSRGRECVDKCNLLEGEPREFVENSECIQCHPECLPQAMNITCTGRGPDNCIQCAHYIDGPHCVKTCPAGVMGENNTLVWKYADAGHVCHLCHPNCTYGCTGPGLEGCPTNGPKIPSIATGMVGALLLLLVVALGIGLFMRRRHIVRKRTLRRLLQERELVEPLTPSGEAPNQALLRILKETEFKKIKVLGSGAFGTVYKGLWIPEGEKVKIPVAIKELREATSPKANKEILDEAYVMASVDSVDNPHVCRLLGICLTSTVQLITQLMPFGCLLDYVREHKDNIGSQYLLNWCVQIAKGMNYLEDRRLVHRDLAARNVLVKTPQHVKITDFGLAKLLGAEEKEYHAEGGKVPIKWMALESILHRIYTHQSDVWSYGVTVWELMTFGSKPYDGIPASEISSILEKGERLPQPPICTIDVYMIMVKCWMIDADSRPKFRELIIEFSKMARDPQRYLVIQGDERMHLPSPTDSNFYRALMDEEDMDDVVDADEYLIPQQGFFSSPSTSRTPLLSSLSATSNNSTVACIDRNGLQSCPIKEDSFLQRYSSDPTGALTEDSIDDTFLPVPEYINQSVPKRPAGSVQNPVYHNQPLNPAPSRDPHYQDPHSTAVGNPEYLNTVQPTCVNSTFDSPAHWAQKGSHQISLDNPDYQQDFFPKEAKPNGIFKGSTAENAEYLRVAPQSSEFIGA
T2 sequence (P04626 23-1255): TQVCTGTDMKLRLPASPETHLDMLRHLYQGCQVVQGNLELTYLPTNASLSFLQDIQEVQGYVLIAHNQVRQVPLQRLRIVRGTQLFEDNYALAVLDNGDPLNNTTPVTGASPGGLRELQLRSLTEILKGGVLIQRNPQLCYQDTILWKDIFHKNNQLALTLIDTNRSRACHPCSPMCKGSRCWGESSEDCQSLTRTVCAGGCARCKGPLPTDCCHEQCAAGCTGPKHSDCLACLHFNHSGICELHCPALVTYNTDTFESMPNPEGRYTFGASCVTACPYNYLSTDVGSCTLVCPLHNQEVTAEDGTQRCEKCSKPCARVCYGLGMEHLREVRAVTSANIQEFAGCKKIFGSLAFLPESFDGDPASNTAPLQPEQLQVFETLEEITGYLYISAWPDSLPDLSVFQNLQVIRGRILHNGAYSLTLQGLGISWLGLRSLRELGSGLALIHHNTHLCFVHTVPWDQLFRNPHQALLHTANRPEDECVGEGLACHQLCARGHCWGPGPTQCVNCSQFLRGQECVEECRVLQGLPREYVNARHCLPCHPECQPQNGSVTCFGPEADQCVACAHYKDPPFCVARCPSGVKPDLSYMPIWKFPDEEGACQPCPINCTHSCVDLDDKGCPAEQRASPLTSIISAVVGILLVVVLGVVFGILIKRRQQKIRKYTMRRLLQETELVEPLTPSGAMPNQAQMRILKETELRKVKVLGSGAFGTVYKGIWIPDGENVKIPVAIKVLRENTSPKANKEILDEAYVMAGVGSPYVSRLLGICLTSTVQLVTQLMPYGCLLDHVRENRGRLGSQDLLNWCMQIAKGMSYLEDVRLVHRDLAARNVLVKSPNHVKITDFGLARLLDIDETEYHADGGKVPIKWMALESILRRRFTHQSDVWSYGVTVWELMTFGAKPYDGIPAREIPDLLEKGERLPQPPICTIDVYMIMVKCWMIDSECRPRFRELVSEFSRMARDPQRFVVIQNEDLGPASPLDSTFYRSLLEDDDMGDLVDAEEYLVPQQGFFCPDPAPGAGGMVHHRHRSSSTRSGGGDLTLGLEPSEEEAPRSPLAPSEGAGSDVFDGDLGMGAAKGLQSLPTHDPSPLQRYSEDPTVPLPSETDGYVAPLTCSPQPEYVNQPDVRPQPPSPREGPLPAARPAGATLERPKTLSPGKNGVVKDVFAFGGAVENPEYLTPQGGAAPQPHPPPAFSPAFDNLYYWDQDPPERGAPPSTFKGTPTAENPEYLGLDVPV
T1 sequence (P00533 25-1210): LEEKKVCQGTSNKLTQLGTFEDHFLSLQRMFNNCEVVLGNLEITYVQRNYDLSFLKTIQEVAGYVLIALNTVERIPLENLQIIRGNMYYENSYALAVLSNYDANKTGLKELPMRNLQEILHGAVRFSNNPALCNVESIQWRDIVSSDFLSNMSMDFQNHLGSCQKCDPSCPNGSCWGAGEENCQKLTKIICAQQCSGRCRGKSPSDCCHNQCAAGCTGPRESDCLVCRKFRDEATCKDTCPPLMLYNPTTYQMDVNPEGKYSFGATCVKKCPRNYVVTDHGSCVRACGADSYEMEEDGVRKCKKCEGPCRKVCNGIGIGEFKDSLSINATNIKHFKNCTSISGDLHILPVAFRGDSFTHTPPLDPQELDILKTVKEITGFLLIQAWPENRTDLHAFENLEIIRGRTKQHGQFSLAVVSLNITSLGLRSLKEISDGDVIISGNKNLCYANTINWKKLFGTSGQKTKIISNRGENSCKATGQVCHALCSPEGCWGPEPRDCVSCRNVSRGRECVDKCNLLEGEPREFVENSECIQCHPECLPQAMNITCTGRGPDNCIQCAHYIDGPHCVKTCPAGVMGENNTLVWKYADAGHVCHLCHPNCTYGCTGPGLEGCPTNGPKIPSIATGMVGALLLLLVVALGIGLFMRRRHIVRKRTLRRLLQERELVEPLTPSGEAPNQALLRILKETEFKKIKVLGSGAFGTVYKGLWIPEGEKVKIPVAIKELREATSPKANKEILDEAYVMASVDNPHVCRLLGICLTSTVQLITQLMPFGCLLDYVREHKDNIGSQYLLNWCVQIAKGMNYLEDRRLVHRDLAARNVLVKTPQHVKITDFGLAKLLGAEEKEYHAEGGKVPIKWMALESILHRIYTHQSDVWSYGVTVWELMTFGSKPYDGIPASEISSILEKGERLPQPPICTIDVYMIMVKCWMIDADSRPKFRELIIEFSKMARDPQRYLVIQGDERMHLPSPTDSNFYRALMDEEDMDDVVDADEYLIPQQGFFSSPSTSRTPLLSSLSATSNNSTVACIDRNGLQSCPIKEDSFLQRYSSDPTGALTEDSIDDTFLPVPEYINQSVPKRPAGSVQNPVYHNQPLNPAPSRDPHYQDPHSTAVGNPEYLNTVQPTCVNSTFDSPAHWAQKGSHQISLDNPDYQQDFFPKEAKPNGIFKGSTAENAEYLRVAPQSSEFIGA

As for `COc1c(NC(=O)/C=C/CN(C)C(C)C)ccc2ncnc(Nc3cccc(Cl)c3F)c12` [Example 8, (E)-N-(4-((3-chloro-2-fluorophenyl)amino)-5-methoxyquinazolin-6-yl)-4-(isopropyl(methyl)amino)but-2-enamide], the IC50 is at most 1 nM in assay [1], 10 to 100 nM in assay [2] and at most 5 nM in assay [3]. Moreover, the GI50 in assay [4] was 50 to 500 nM; in assay [5], 5 to 50 nM.

`COc1c(NC(=O)/C=C/CNC(C)C)ccc2ncnc(Nc3cccc(Cl)c3F)c12` [Example 9, (E)-N-(4-((3-chloro-2-fluorophenyl)amino)-5-methoxyquinazolin-6-yl)-4-(isopropylamino)but-2-enamide]: the values for the IC50 in assay [1], in assay [2] and in assay [3] were at most 1 nM, 10 to 100 nM and at most 5 nM, respectively. For the same molecule, the results for the GI50 in assay [4] and in assay [5] were 5 to 50 nM and at most 5 nM, respectively.

As for `CC(C)Oc1c(NC(=O)/C=C/CN(C)C)ccc2ncnc(Nc3cccc(Cl)c3F)c12` [Example 10, (E)-N-(4-((3-chloro-2-fluorophenyl)amino)-5-isopropoxyquinazolin-6-yl)-4-(dimethylamino)but-2-enamide], the IC50 in assay [1] lay within 1 to 10 nM; in assay [2], 100 to 1000 nM; in assay [3], 5 to 50 nM. Further, the GI50 in assay [4] and in assay [5] was 50 to 500 nM in each case.

Turning to `CN(C)C/C=C/C(=O)Nc1ccc2ncnc(Nc3cccc(Cl)c3F)c2c1OCCCO` [Example 11, (E)-N-(4-((3-chloro-2-fluorophenyl)amino)-5-(3-hydroxypropoxy)quinazolin-6-yl)-4-(dimethylamino)but-2-enamide], the IC50 in assay [1] is at most 1 nM; in assay [2], 100 to 1000 nM; in assay [3], at most 5 nM. Also, the figures for the GI50 in assay [4] and in assay [5] were 50 to 500 nM and at most 5 nM, respectively.

Consider `CN(C)C/C=C/C(=O)Nc1ccc2ncnc(Nc3cccc(Cl)c3F)c2c1OCC(C)(C)O` [Example 13, (E)-N-(4-((3-chloro-2-fluorophenyl)amino)-5-(2-hydroxy-2-methylpropoxy)quinazolin-6-yl)-4-(dimethylamino)but-2-enamide], for which the IC50 in assay [1] is at most 1 nM; in assay [2], 10 to 100 nM; in assay [3], at most 5 nM. Further, the GI50 in assay [4] is 50 to 500 nM; in assay [5], at most 5 nM.

With `CN(C)C/C=C/C(=O)Nc1ccc2ncnc(Nc3cccc(Cl)c3F)c2c1OCCC(C)(C)O` [Example 14, (E)-N-(4-((3-chloro-2-fluorophenyl)amino)-5-(3-hydroxy-3-methylbutoxy)quinazolin-6-yl)-4-(dimethylamino)but-2-enamide], the IC50 in assay [1] is 1 to 10 nM; in assay [2], 10 to 100 nM; in assay [3] it was at most 5 nM. In addition, the GI50 in assay [4] was 50 to 500 nM; in assay [5], 5 to 50 nM.

For `CN(C)C/C=C/C(=O)Nc1ccc2ncnc(Nc3cccc(Cl)c3F)c2c1OCCCF` [Example 15, (E)-N-(4-((3-chloro-2-fluorophenyl)amino)-5-(3-fluoropropoxy)quinazolin-6-yl)-4-(dimethylamino)but-2-enamide], the IC50 in assay [1] is at most 1 nM; in assay [2] it was 10 to 100 nM; in assay [3] it was at most 5 nM. In addition, the values for the GI50 in assay [4] and in assay [5] were 50 to 500 nM and 5 to 50 nM, respectively.

`CN(C)C/C=C/C(=O)Nc1ccc2ncnc(Nc3cccc(Cl)c3F)c2c1OCC(F)(F)F` [Example 16, (E)-N-(4-((3-chloro-2-fluorophenyl)amino)-5-(2,2,2-trifluoroethoxy)quinazolin-6-yl)-4-(dimethylamino)but-2-enamide]: the IC50 in assay [1] was at most 1 nM; in assay [2] it was 10 to 100 nM; in assay [3], at most 5 nM. The GI50 in assay [4] is 50 to 500 nM; in assay [5] it was 5 to 50 nM.

`CN(C)C/C=C/C(=O)Nc1ccc2ncnc(Nc3cccc(Cl)c3F)c2c1OCC(F)F` [Example 17, (E)-N-(4-((3-chloro-2-fluorophenyl)amino)-5-(2,2-difluoroethoxy)quinazolin-6-yl)-4-(dimethylamino)but-2-enamide]: the IC50 in assay [1] is at most 1 nM; in assay [2], 100 to 1000 nM; in assay [3] it was at most 5 nM. For the same molecule, the GI50 was in the range of 50 to 500 nM in assay [4] and 5 to 50 nM in assay [5].

Take `CN(C)C/C=C/C(=O)Nc1ccc2ncnc(Nc3cccc(Cl)c3F)c2c1OCCC(F)(F)F` [Example 18, (E)-N-(4-((3-chloro-2-fluorophenyl)amino)-5-(3,3,3-trifluoropropoxy)quinazolin-6-yl)-4-(dimethylamino)but-2-enamide]: the IC50 in assay [1] is at most 1 nM; in assay [2] it was 100 to 1000 nM; in assay [3] it was at most 5 nM. Besides, the figures for the GI50 in assay [4] and in assay [5] were 50 to 500 nM and 5 to 50 nM, respectively.

Regarding `COc1c(NC(=O)/C=C/CN(C)C)ccc2ncnc(Nc3ccc(Cl)c(Cl)c3F)c12` [Example 19, (E)-N-(4-((3,4-dichloro-2-fluorophenyl)amino)-5-methoxyquinazolin-6-yl)-4-(dimethylamino)but-2-enamide], the figures for the IC50 in assay [1], in assay [2] and in assay [3] were at most 1 nM, 10 to 100 nM and at most 5 nM, respectively. Also, the GI50 in assay [4] lay in the range of 50 to 500 nM; in assay [5] it was 5 to 50 nM.
